Source: US6613738B1, “Cyclic lipopeptide from Cryptosporiopsis quercina possessing antifungal activity” (HMV Corporation, priority 1998, dated 2003)
Numbered stars: 1 amine (or outer) side, 2 acyl side, 3 side chain; on linkers, the order of the positions; unused ones are H or OH. Bridge positions count the residues as written; N and C are the ends. Square brackets hold non-standard residues; d marks the D form. Peptide text beside a SMILES is read from it. * marks the point of attachment. ξ: configuration not given here. ξOrn(4,5-diOH) = O=C(C(CC(O)C(O)N[*:3])N[*:1])[*:2]; ξhTyr(βξ-OH,γξ-OH) = NC(C(=O)O)C(O)C(O)c1ccc(O)cc1; X1 = O=C(C1C(O)C(CO)CN1[*:1])[*:2]; Palmitoyl = CCCCCCCCCCCCCCCC(=O)*; Hyp = O=C(O)[CH]1C[CH](O)CN1

What was measured:
Aspergillus fumigatus = assay: MIC, microbroth dilution assay (NCCLS); assay type: cell-based
Candida parasilopsis = assay: MIC, microbroth dilution assay (NCCLS); assay type: cell-based
Candida albicans = assay: MIC, microbroth dilution assay (NCCLS); assay type: cell-based
Histoplasma capsulatum = assay type: cell-based
Cryptococcus neoformans = assay: MIC, microbroth dilution assay (NCCLS); assay type: cell-based
nail and skin infections = assay: Nail and skin infections with human volunteers; assay type: in vivo

Compound | Minimum Inhibitory Concentration (Aspergillus fumigatus) [µg/mL] | Minimum Inhibitory Concentration (Candida parasilopsis) [µg/mL] | Minimum Inhibitory Concentration (Candida albicans) [µg/mL] | Minimum Inhibitory Concentration (Histoplasma capsulatum) [µg/mL] | Minimum Inhibitory Concentration (Cryptococcus neoformans) [µg/mL] | effect on fungus (in words) (Aspergillus fumigatus) | results on nail and skin infections (nail and skin infections) | effect on fungus (in words) (Cryptococcus neoformans)
C[C@@H]1[C@H](O)[C@@H](C)/C=C/C=C/C=C/C=C/C=C/C=C/C=C/[C@H](O[C@@H]2O[C@H](C)[C@@H](O)[C@H](N)[C@@H]2O)C[C@@H]2O[C@](O)(C[C@@H](O)C[C@@H](O)[C@H](O)CC[C@@H](O)C[C@@H](O)CC(=O)O[C@H]1C)C[C@H](O)[C@H]2C(=O)O [Amphotericin B, reference compound] | 0.03 | 0.01 | 0.04 | 0.01 | 0.04 |  |  | 
CCCCCCCCCCCCCCCC(=O)NC1CC(O)C(O)NC(=O)C2C(O)C(CO)CN2C(=O)C(CCC(N)=O)NC(=O)C(C(O)C(O)c2ccc(O)cc2)NC(=O)C2CC(O)CN2C(=O)C(C(C)O)NC1=O (stereo not drawn) [Cryptocandin] (Palmitoyl-[ξOrn(4,5-diOH)]T[Hyp][ξhTyr(βξ-OH,γξ-OH)]Q[X1]; lactam 1-C; configuration not given here) | >20 | 2.5 | 0.03 | 0.01 | >20 | little effect | promising results | little effect
Echinocandin B [reference compound] | >20 |  | 0.3 |  | >20 |  |  | 
